Holding throughout (assay type): in vivo
Data set [1] relates to obese mice. The experiment in a line: PF06648671-High Fat Diet (HFD) treatment study: echocardiography. The procedure: (§1) PF06648671-High Fat Diet (HFD) treatment study: At 12 weeks of age, mice (n=30) were placed on a HFD with 43% of calories from fat (23.5% by weight; SF04-001 High Fat Rodent Diet Based on D12451, Specialty Feeds, Glen Forrest, Wash.). After 13 weeks of the diet period, echocardiography was performed on all mice to obtain pre-drug treatment measures of cardiac function. Mice were allocated to treatment groups so that measures of cardiac function and morphology were matched as best as possible. PF06648671 (Medkoo Biosciences) was resuspended in 100% DMSO before being diluted in a hydroxypropyl cellulose solution to give a final solution containing lmg/mL PF06648671 in 10% hydroxypropyl cellulose and 5% DMSO. A vehicle solution containing 10% hydroxypropyl cellulose and 5% DMSO was also made. Aliquots of both drug and vehicle were stored at −80° C. until required. The HFD/PF06648671 group was administered 4 mg/kg of PF06648671 per day by oral gavage, while the HFD/control group received an equivalent volume of vehicle. Echocardiography was then performed following 4 weeks of the treatment period to obtain post-drug treatment measures of cardiac function. Following 5 weeks of the drug administration, mice were humanely killed via cervical dislocation and blood was immediately obtained via cardiac puncture and stored in a heparinised tube. The heart, epididymal fat pad, mesenteric fat pad, liver, quadricep, hind limb and brain were then immediately dissected. The heart was blotted prior to being weighed and all tissues were snap frozen in liquid nitrogen and stored at −80° C. Plasma Aβ species were measured using high sensitivity ELISA kits (Wako Diagnostics) and plasma that was diluted 1:10 with assay buffer.

The subject of data set [2] is plasma Aβ species. The experiment in a line: PF06648671-High Fat Diet (HFD) treatment study: plasma Aβ species by ELISA. Conditions: obese mice. The procedure: as §1, with “Following 5 weeks of the drug administration, mice were humanely killed via cervical dislocation and blood was immediately obtained via cardiac puncture and stored in a heparinised tube. The heart, epididymal fat pad, mesenteric fat pad, liver, quadricep, hind limb and brain were then immediately dissected. The heart was blotted prior to being weighed and all tissues were snap frozen in liquid nitrogen and stored at −80° C.” left out

Data set [3] concerns Male C57BL6 mice. Briefly: Aβ40 administration study: plasma Aβ40 and echocardiography. As to conditions: 1 μg/day i.p. The method, then: Aβ40 administration study: Lyophilised recombinant Aβ40 (Millipore) and scrambled control peptide (ScrAβ40; Millipore) were resuspended in 1% NH4OH and aliquoted at 200 ng/ml in H2O and stored at −80° C. for no longer than 4 weeks. Male C57BL6 mice were obtained from the Animal Resource Centre (Perth, Wash.) at 4 weeks of age and housed with 4 mice per cage on a 12 hr light/dark cycle at a temperature of 22° C. and a constant humidity with a normal rodent diet. At 12 weeks of age, mice were grouped according to body mass and composition, determined by EchoMRI. Mice were then administered 1 μg of recombinant Aβ40 or ScrAβ40 (n=12/group per cohort) by i.p. injection once/day for 5 wks. After 4 weeks of peptide administration, cardiac function was assessed by echocardiography as follows. Mice were anaesthetised with inhalation of 1.5% isoflurane anaesthesia and echocardiography was performed using the Phillips HD15 diagnostic ultrasound system with a 15 MHz linear-array transducer by an experienced veterinarian. The velocity of blood flow through the mitral valve was analysed using Doppler mode imaging. […] Doppler imaging was also utilised to measure the velocity of blood flow through the aortic valve. The measurements were then used to calculate the ejection time, peak aortic flow and heart rate. M-mode imaging of the left ventricle was used to measure the thickness of the inter-ventricular septum (IVS), left ventricular internal diameter (LVID) and left ventricular posterior wall (LVPW) in both diastole (d) and end-systole (s) as well as systolic measures such as ejection fraction and fractional shortening. An estimation of LV mass was calculated from the m-mode imaging by using the formula (1.05[LVIDd+LVPWd+IVSd]^3−[LVIDd]^3) by Troy et al. (1972). Mice were humanely killed by cervical dislocation 1 week later. Blood was obtained immediately following by cardiac puncture and the heart, and other tissues were immediately removed. Hearts were washed in ice cold PBS and weighed prior to being snap frozen in liquid nitrogen. Plasma Aβ40 was measured using a high sensitivity ELISA kit (Wako Diagnostics) and plasma that was diluted 1:10 with assay buffer.

The subject of data set [4] is Male C57BL6 mice. Briefly: Aβ42 administration study: cardiac function by echocardiography. The procedure:
After 4 weeks of peptide administration, cardiac function was assessed by echocardiography as follows. Mice were anaesthetised with inhalation of 1.5% isoflurane anaesthesia and echocardiography was performed using the Phillips HD15 diagnostic ultrasound system with a 15 MHz linear-array transducer by an experienced veterinarian. The velocity of blood flow through the mitral valve was analysed using Doppler mode imaging. […] Doppler imaging was also utilised to measure the velocity of blood flow through the aortic valve. The measurements were then used to calculate the ejection time, peak aortic flow and heart rate. M-mode imaging of the left ventricle was used to measure the thickness of the inter-ventricular septum (IVS), left ventricular internal diameter (LVID) and left ventricular posterior wall (LVPW) in both diastole (d) and end-systole (s) as well as systolic measures such as ejection fraction and fractional shortening. An estimation of LV mass was calculated from the m-mode imaging by using the formula (1.05 [LVIDd+LVPWd+IVSd]^3−[LVIDd]^3) by Troy et al. (1972). Mice were humanely killed by cervical dislocation 1 week later. Blood was obtained immediately following by cardiac puncture and the heart, and other tissues were immediately removed. Hearts were washed in ice cold PBS and weighed prior to being snap frozen in liquid nitrogen.
Hearts were also collected for morphological analysis (FIG. 2).

Data set [5] concerns Male C57BL6 mice. Briefly: Aβ42 administration study: plasma Aβ42, body measures, GTT with glucose tracers, cardiac TAG, gene expression.
Protocol: Male C57BL6 mice were obtained from the Animal Resource Centre (Perth, Wash.) at 4 weeks of age and housed with 4 mice per cage on a 12 hr light/dark cycle at a temperature of 22° C. and a constant humidity with a normal rodent diet. At 12 weeks of age, mice were grouped according to body mass and composition, determined by EchoMRI. […] An i.p. glucose tolerance test (GTT) was performed on the final treatment day following an overnight fast. Mice were administered 2 g/kg lean mass of glucose including radioactive glucose tracers, prepared as follows. 100 μl of 1 μCi/μl glucose analogue, [^3H]-2-deoxyglucose (2-DOG), and 500 μl of 200 μCi/mL U-^14C glucose were evaporated to dryness before redissolving the radioactive tracers in 1 mL of 50% glucose. This produced a 50% glucose solution containing 100 μCi/mL [^3H]-2-DOG and 100 μCi/mL U-^14C glucose. The tail tip of each mouse was cut off and the blood glucose concentration of a blood sample was measured using an AccuCheck II glucometer (Roche). The GTT was initiated via intraperitoneal injection of the radiolabelled glucose solution (2 g/kg body weight, 10 uCi/animal) into the overnight-fasted mice. Further blood samples were taken at 15, 30, 45, 60 and 90 minutes after the injection for the measurement of blood glucose. Blood samples (30 μl) were also taken from the tail tip at each time point and diluted in 100 μl of saline. These samples were then centrifuged and the supernatant collected. 50 μl of the supernatant was diluted in 500 μl of distilled water and then suspended in 4 mL of Ultima Gold XR scintillation fluid (Packard Bioscience). Blood radioactivity was determined at each time point by performing liquid scintillation counting on each solution using the Beckman scintillation counter (LS6000 SC). At the conclusion of the GTT, mice were killed via cervical dislocation. Blood was obtained immediately following by cardiac puncture and the heart, and other tissues were immediately removed. Hearts were washed in ice cold PBS and weighed prior to being snap frozen in liquid nitrogen. The heart (30 mg), epididymal fat pad (30 mg and quadriceps skeletal muscle (30 mg) were homogenised in 1.5 ml of distilled water. The homogenate was centrifuged at 3000 rpm for 10 min at 4° C. 400 μl of the supernatant was diluted into 1.6 mL of distilled water and then suspended in 14 mL of Ultima Gold XR scintillation fluid (Packard Bioscience). The radioactivity of each sample (from both [^3H]-2-DOG6P and [^3H]-2-DOG) was determined by liquid scintillation counting using the Beckman scintillation counter (LS6000 SC). The ^3H radioactivity was used to measure glucose uptake into each tissue.
To determine the incorporation of U-^14C glucose into triglyceride and the total triglyceride content in the heart, an extraction of triglyceride was carried out using a chloroform/methanol mixture. Samples of heart (30 mg) were hand-homogenised in 2 mL of chloroform/methanol (2:1) and the homogeniser rinsed in a further 2 mL of chloroform/methanol (2:1), and the washings being added to the original extract in 10 mL tubes. The tubes were tightly capped and mixed on a rotator overnight to maximise extraction of the triglycerides. 2 ml of 0.6% saline was then added, to facilitate the separation of the organic and aqueous phases, after which the tubes were mixed thoroughly and then centrifuged at 2000 rpm for 10 minutes. The lower chloroform phase (containing triglycerides) was collected and evaporated to dryness under nitrogen at 45° C. The dried extract was then re-dissolved in 250 μl of 100% ethanol, to redissolve the lipid and enable aliquots to dispensed for assay. The amount of U-^14C glucose clearance into the lipid fraction was measured by suspending 100 μl of the triglyceride solution in 5 mL of Ultima Gold XR scintillation fluid (Packard Bioscience), followed by scintillation counting using the Beckman scintillation counter (LS6000 SC).
Setting [6] is: GTT after five weeks of peptide, vs ScrAβ42.

Entries after “also recorded” stand apart in the source; their conditions may differ.

As for `Cc1cn(-c2ccc3n(c2=O)CCN([C@@H](C)[C@@H]2CC[C@H](c4cc(F)c(Cl)cc4C(F)(F)F)O2)C3=O)cn1` [PF06648671], the “relative change in the E:A ratio, Vehicle vs PF06648671 groups” value in data set [1] (obese mice (FIG. 7D)) is on record as “significantly different”. Moreover, in data set [1] (obese mice, 4 mg/kg per day oral gavage, 4 weeks (FIG. 7C)), the “E:A ratio Pre-treatment to Post-treatment” value is “did not change; also recorded: prevented deterioration”. Moreover, in data set [1] (obese mice, 4 mg/kg per day oral gavage, 4 weeks (FIG. 7D)), the “E:A ratio relative to Pre-treatment values” is listed as 114%. In addition, in data set [2] (4 mg/kg per day oral gavage (FIG. 7A)), the “plasma Aβ40” value is recorded as “decreased”. Moreover, the “plasma Aβ42” value in data set [2] (4 mg/kg per day oral gavage (FIG. 7B), 4 mg/kg/day) is given as “decreased; also recorded: reduced”.
Turning to “Aβ40: Lyophilised recombinant Aβ40 (Millipore)”, the “E:A ratio” value in data set [3] (5 weeks (FIG. 6B)) is “did not have any effect”. In addition, the DT result in data set [3] (5 weeks (FIG. 6C)) was “did not have any effect”. Also, the ejection fraction result in data set [3] (5 weeks (FIG. 6E)) is “nor any effect”. Further, the IVSd entry in data set [3] (5 weeks (FIG. 6F)) was “no effect”. Moreover, the LVIDd result in data set [3] (5 weeks (FIG. 6G)) is listed as “no effect”. Moreover, the LV mass entry in data set [3] (5 weeks (FIG. 6H)) is “no effect”. Also, the “plasma Aβ40” value in data set [3] (5 weeks, vs ScrAβ40 (FIG. 6A)) is on record as “significantly increased”.
In the case of “Aβ42: Lyophilised recombinant Aβ42 (Millipore)”, the “internal dimensions of the left ventricle (LVIDd)” value in data set [4] (Aβ42 vs ScrAβ42 (FIG. 2B)) is given as “no effect”. In addition, in data set [4] (Aβ42 vs ScrAβ42 (FIG. 2D)), the deceleration time entry is recorded as “increased”. In data set [4] (Aβ42 vs ScrAβ42 (FIG. 2E)), the “E normalised by isovolumetric relaxation time (IVRT)” value is recorded as “no significant difference”. The fractional shortening entry in data set [4] (Aβ42 vs ScrAβ42 (FIG. 2F)) is “reduced”. Further, the ejection fraction entry in data set [4] (Aβ42 vs ScrAβ42 (FIG. 2G)) is “reduced”. Further, the gross heart weight result in data set [4] (Aβ42 vs ScrAβ42, five weeks (FIG. 2A)) is “no effect”. In addition, the “increase in plasma Aβ42” value in data set [5] (1 μg/day i.p., five weeks, compared with ScrAβ42 (FIG. 1A)) was “approximately 3 fold”. In data set [5] (setting [6]), the “plasma insulin throughout the GTT” value was “no difference” and the “whole body glucose tolerance” value was “no difference”. For the same compound, in data set [5] (heart, after five weeks of peptide (FIG. 1C)), the “glucose incorporation into TAG (14C-glucose labelling)” value is recorded as “greater”. Further, the “total TAG” value in data set [5] (heart, after five weeks of peptide (FIG. 1D)) was “increased”. The “cardiac gene expression (inflammation, endoplasmic reticulum stress)” value in data set [5] (heart, after five weeks of peptide (FIG. 1E)) is on record as “gene expression changes indicative of cardiac stress responses”.
